Among the data in patent publication US4757069A, “Pyridazodiazepine derivatives” (Hoffmann-La Roche Inc., priority 1986, dated 1988) are IC50 values, retold here.

Counter-ions that a name gives are not always drawn.

The experiment deals with T1, Angiotensin converting enzyme (rabbit lung) (Oryctolagus cuniculus, UniProt P12822).
T1 construct: Angiotensin converting enzyme (rabbit lung); from tissue; host or cells: rabbit lung
T1 sequence (P12822 34-1310): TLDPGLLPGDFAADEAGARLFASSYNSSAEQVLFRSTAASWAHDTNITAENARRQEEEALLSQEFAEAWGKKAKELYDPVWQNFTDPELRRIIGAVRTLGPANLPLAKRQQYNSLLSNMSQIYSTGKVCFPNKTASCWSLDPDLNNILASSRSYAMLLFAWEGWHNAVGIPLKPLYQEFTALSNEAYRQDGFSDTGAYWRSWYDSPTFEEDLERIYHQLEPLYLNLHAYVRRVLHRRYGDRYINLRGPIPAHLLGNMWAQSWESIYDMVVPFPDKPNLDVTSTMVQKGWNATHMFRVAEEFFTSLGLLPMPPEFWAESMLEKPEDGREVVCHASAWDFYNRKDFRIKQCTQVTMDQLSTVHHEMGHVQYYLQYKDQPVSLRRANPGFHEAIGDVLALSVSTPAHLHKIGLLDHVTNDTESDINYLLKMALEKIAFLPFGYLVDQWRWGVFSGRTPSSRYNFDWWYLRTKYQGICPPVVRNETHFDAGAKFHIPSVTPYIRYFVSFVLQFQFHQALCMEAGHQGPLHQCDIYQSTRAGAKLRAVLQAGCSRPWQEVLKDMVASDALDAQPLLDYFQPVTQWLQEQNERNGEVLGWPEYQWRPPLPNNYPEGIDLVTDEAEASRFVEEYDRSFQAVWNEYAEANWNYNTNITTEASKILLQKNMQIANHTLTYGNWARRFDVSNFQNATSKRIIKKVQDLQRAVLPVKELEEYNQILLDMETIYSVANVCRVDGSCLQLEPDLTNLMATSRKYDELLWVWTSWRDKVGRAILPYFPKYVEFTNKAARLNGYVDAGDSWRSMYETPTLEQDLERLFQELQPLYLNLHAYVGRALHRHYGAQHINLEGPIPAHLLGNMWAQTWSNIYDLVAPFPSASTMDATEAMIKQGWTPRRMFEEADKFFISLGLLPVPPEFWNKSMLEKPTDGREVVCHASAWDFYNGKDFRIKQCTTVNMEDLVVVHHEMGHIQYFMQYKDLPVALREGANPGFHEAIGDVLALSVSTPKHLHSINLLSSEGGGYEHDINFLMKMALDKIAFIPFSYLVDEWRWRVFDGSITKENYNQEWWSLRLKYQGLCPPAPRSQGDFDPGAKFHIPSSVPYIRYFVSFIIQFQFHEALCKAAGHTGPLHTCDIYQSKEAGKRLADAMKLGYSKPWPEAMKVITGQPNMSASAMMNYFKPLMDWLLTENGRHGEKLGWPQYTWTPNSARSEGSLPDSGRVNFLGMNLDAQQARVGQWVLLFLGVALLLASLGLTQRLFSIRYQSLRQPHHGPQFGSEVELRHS
Briefly: Inhibition of angiotensin-converting enzyme in vitro (conversion of angiotensin I into angiotensin II, fluorescence). The experiment is classed as biochemical. The settings on record: rabbit lung ACE; 90 min preincubation at 37° C., pH 7.5; angiotensin I 250 μmol; 30 min reaction; read-out: IC50 (concentration of test substance which reduces by 50% the conversion of angiotensin I into angiotensin II). Here is the method:
The activity of the present pyridazodiazepine derivatives in inhibiting angiotensin-converting enzyme in vitro can be determined using the test now described.
The method used is based on the method of Santos, R. A. S., Kreiger, E. M., and Greene L. J., Hypertension (1985), 7, 244-252. Angiotensin converting enzyme (rabbit lung) is incubated in the presence or absence of various concentrations of a test substance for 90 minutes at 37° C. in 0.1M potassium phosphate buffer, pH 7.5, containing 30 mmol of sodium chloride. If the test substance is an ester, it is cleaved by treatment with hog liver esterase prior to carrying out the test. The reaction is initiated by adding angiotensin I to a final concentration of 250 μmol. The final volume of the reaction mixture is 0.25 ml. After holding the reaction mixture at 37° C. for 30 minutes the reaction is terminated by adding 1.45 ml of 0.3M sodium hydroxide solution. […] of a 0.2% (weight/volume) solution of o-phthaldialdehyde in methanol are added and, after 10 minutes, the solution is acidified with 200 μl of 3M hydrochloric acid. The resulting solution is then subjected to fluorescence spectrometry using excitation and emission wavelengths of 365 nm and 500 nm, respectively, and the IC50 value is calculated. The IC50 is that concentration of test substance which reduces by 50% the conversion of angiotensin I into angiotensin II.

As to `N=C(N)Nc1ccc(CC[C@H](N[C@H]2CCCN3CCC[C@@H](C(=O)O)N3C2=O)C(=O)O)cc1` [Example 1, 9(S)-[1(S)-carboxy-3-(4-guanidinophenyl)propylamino]-octahydro-10-oxo-6H-pyridazo[1,2-a][1,2]diazepine-1(S)-carboxylic acid dihydrobromide], the IC50 came to 0.6 nM.
